Peptide text beside a SMILES is read from it.
How the values were obtained:
[1] = target: T1, Neuromedin-K receptor (Cavia porcellus) (UniProt P30098); test: Inhibitory activity against binding of [125I][MePhe7]-NKB SP to tachykinin NK-3 receptor in guinea pig cortical membranes at concentration 10 uM; type: cell membranes
T1 sequence (whole entry): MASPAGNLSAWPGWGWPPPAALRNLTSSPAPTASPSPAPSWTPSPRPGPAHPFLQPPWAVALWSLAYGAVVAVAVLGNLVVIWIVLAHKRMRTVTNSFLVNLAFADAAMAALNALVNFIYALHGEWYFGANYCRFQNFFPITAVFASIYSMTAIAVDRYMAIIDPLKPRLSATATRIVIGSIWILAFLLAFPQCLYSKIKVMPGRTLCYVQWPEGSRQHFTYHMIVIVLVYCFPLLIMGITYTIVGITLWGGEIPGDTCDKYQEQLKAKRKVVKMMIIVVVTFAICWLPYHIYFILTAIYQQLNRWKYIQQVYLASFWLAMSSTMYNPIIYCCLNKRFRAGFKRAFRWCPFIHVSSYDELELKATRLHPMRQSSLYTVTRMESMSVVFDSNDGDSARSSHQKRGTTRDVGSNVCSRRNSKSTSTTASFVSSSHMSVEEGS

Substance-P receptor [2] = target: T2, Substance-P receptor (Homo sapiens, UniProt P25103); test: Inhibitory activity against binding of [125I]Bolton-Hunter SP to tachykinin NK-1 receptor in human lymphoma IM9 cells.; type: cell-based, IM-9
T2 sequence (P25103 whole entry): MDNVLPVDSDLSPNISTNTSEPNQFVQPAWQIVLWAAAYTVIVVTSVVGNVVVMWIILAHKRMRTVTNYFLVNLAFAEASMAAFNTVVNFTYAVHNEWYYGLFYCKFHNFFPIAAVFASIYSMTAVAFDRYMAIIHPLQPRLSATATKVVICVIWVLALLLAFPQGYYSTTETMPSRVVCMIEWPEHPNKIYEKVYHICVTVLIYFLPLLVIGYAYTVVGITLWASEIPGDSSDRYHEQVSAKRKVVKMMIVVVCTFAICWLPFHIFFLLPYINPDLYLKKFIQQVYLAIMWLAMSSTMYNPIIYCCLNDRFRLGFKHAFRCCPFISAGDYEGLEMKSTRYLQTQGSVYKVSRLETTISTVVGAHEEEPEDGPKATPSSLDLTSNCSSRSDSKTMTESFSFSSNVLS

Neuromedin-K receptor = target: T3, Neuromedin-K receptor (Cavia porcellus, UniProt P30098); test: Inhibitory activity against binding of [125I][MePhe7]-NKB SP to tachykinin NK-3 receptor in guinea pig cortical membranes.; type: cell membranes
T3 sequence (P30098 whole entry): T1 sequence (whole entry)

Substance-P receptor [3] = target: T2, Substance-P receptor; test: Inhibitory activity against binding of [125I]Bolton-Hunter SP to tachykinin NK-1 receptor in human lymphoma IM9 cells at concentration 10 uM; type: cell-based; conditions: IM-9
Substance-P receptor [4] = target: T2, Substance-P receptor; test: Inhibitory activity against binding of [125I]Bolton-Hunter SP to tachykinin NK-1 receptor in human lymphoma IM9 cells; type: cell-based, IM-9

Structure (SMILES) | inhibition [1] | IC50 (Substance-P receptor [2]) | IC50 (Neuromedin-K receptor) | inhibition (Substance-P receptor [3]) | IC50 (Substance-P receptor [4])
O=C1C(Cc2c[nH]c3ccccc23)OCCN1Cc1ccccc1 (configuration not stated) | < 10% | 3.5 µM |  |  | 
CSCC[C@H](NC(=O)[C@H](CC(C)C)NC(=O)CNC(=O)[C@H](Cc1ccccc1)NC(=O)[C@H](Cc1ccccc1)NC(=O)[C@H](CCC(N)=O)NC(=O)[C@H](CCC(N)=O)NC(=O)[C@@H]1CCCN1C(=O)[C@H](CCCCN)NC(=O)[C@@H]1CCCN1C(=O)[C@@H](N)CCCN=C(N)N)C(N)=O [SUBSTANCE P] |  |  | 0.717 µM |  | 
O=C1C(Cc2ccccc2)OCCN1Cc1ccccc1 (configuration not stated) |  |  | 4.09 µM | < 10% | 
NC(=O)[C@H](Cc1ccccc1)NC(=O)[C@H](Cc1c[nH]c2ccccc12)NC(=O)OCc1ccccc1 (HELM PEPTIDE1{[O=C(OCc1ccccc1)[*:2]].W.F.[am]}$$$$V2.0) | < 10% |  |  |  | 4.2 µM

Reference: ChEMBL document CHEMBL1129185, “The design and synthesis of non-peptide ligands with affinity and selectivity for tachykinin receptors” (Bioorg Med Chem Lett, 1996)
